# Assay results as given in PMC5456102, “NGR-peptide−drug conjugates with dual targeting properties” (PLoS ONE, 2017).
# Positions of bridges follow the written chain, without caps; N, C: chain ends. Residues, ends and D or L forms follow the SMILES beside them. Groups on a side chain read outwards from the residue. *: point of attachment. Daunorubicin(13-NOCH2CO) = COc1cccc2c1C(=O)c1c(O)c3c(c(O)c1C2=O)C[C@@](O)(C(C)=NOCC(=O)*)C[C@@H]3O[C@H]1C[C@H](N)[C@H](O)[C@H](C)O1
# Assays:
# [1] = non-conjugated cyclic peptides; cited from earlier work
# Description: Cyclic NGR peptides are promising candidates as targeting moieties for drug delivery to CD13-positive tumor cells and the tumor neovasculature. Up to now the most widely used NGR peptide conjugates have been based on the disulfide bridge containing cyclic peptide [CNGRC]. The cargo (including tumor necrosis factor (TNF), platina complexes, etc.) is usually attached to the C-terminus of the peptide. Recently, an amide bond containing cyclic NGR peptide ([KNGRE]-NH2) with higher resilience against deamidation has been described, in which cargos such as fluorescent labels or chelated ...
# [2] = tested on: DNA; details: main Dau containing metabolite; cited from earlier work
# [3] = tested on: HT-1080 (human fibrosarcoma) cells, CD13 positive; assay: In vitro cytotoxicity (72 h treatment); type: cell-based; details: 72 h continuous treatment, PrestoBlue viability, 5000 cells/well, 9 concentrations in triplicates, IC50 averaged, tests carried out 3 times, read-out: IC50, 72 h, HT1080 (cytotoxic effect)
# Procedure: (§1) In the case of cytotoxicity measurements, the drug containing medium was on the cells for the full period of the 72 h assay. At 72 h, supernatant was removed from the cells, and viability was assessed by the PrestoBlue® reagent (Life Technologies), which was diluted in PBS to reach the concentration given in the manufacturer’s instruction. Curves were fitted by GraphPad Prism 5 software using the sigmoidal dose–response model (https://www.graphpad.com/scientific-software/prism/). The conjugates were serially diluted, 9 concentrations were measured in triplicates. […] IC50 values were averaged; statistical significance was calculated using unpaired t-tests. The cytostatic/cytotoxic effect of the cyclic NGR peptide-Dau conjugates was examined in vitro on CD13-positive HT-1080 human fibrosarcoma cells and on CD13-negative HT-29 human colon adenocarcinoma cells. High expression of CD13 in HT-1080 cells was confirmed by FACS, using the CD13-specific OKM13 antibody. […] We compared the toxicity of the conjugates and the free drug molecules. It is important to note that the free drug enters the cell via diffusion, while the conjugates are taken up by a receptor-mediated pathway, which is followed by the intracellular release of the drug molecule or its active metabolite. […] In the second experiment the conjugates were added to the cells for 72 h (cytotoxic effect).
# [4] = tested on: HT-29 (human colon adenocarcinoma) cells, CD13 negative; assay: In vitro cytotoxicity (72 h treatment); type: cell-based; details: 72 h continuous treatment, PrestoBlue viability, 5000 cells/well, 9 concentrations in triplicates, IC50 averaged, tests carried out 3 times, read-out: IC50, 72 h, HT-29 (cytotoxic effect)
# Procedure: as §1
# [5] = tested on: HT-1080 (human fibrosarcoma) cells, CD13 positive; assay: In vitro cytostatic effect (6 h treatment + 66 h drug-free); type: cell-based; details: HT-1080, read-out: IC50, 6 h, HT1080 (cytostatic effect)
# Procedure: as §1, with “At” for “In the case of cytotoxicity measurements, the drug containing medium was on the cells for the full period of the 72 h assay. At”
# [6] = tested on: HT-29 (human colon adenocarcinoma) cells, CD13 negative; assay: as above; type: cell-based; details: HT-29, read-out: IC50, 6 h, HT-29 (cytostatic effect)
# Procedure: as §1, with “At” for “In the case of cytotoxicity measurements, the drug containing medium was on the cells for the full period of the 72 h assay. At”
# [7] = Lysosomal degradation; type: in vitro ADME; details: rat liver lysosomal homogenate, 37°C, LC-MS
# Procedure: Rat liver lysosomal homogenate was prepared as described previously. Protein concentration was determined with bicinchoninic acid (Pierce BCA protein assay) according to the manufacturer’s protocol (ThermoFisher Scientific, Rockford, IL, USA) and it was 17.4 μg/μL. Degradation of the bioconjugates in the rat liver lysosomal homogenate was determined as follows: i) bioconjugates were dissolved in d.i. water at a concentration of 4 μg/μL, ii) the solutes were further diluted to a concentration of 0.2 μg/μL with 0.2 M NaOAc (pH 5.0), iii) the rat liver lysosomal homogenate was diluted with 0.2 M NaOAc (pH 5.0) to a concentration of 3.48 μg/μL, iv) the homogenate was added to the conjugates (conjugate/lysosomal homogenate ratio = 1:1, w/w), v) the reaction mixtures were incubated at 37°C and aliquots of 13 μL were taken at 5 min, 6 h and 72 h, vi) the reactions were quenched by adding 2 μL of formic acid, followed by LC-MS analysis (Bruker Esquire 3000+; Jasco PU-2085plus system; Supelco Ascentis C18 coloum, 3 μm, 2,1 x 150 mm, 100 Å).
# Conjugates for drug targeting with receptor-binding peptides may enter the cells by receptor mediated endocytosis. Endocytic vesicles fuse with lysosomes, which is followed by the degradation of the conjugates by lysosomal enzymes. Cathepsin B is one of the main lysosomal enzymes overexpressed in cancer cells. Therefore, Cathepsin B labile spacers (e.g. GFLG tetrapeptide) are often incorporated between the drug and targeting moiety. We used a rat lysosomal homogenate to study the degradation of conjugates and to follow the release of drug containing metabolites (Fig 9, S9–S14 Figs). […] In addition, a minor peak corresponding to Dau = Aoa-Gly-Phe-OH could also be detected. The peak corresponding to Dau = Aoa-GF-OH was the highest in case of conjugate 1. In contrast to these conjugates, decomposition of the disulfide bond containing conjugate (2) was much slower. […] This slow degradation might be one of the reasons why conjugate 2 is less toxic than conjugate 5, which has the same ring size. […] After 72 h only Dau = Aoa-Gly-OH could be detected in cases of all conjugates.
# [8] = tested on: HT-1080 cells; assay: Cellular uptake by flow cytometry; type: cell-based, human; details: 10 μM conjugate in FBS supplemented medium, 6 h, 37°C, flow cytometry of Dau fluorescence, live cells (Zombie Violet)
# Procedure: (§2) HT-1080 and HT-29 cells were seeded at a 250,000 cells/well density, and were incubated overnight in their culturing media. The following day daunomycin conjugates were dissolved in culturing media (FBS supplemented), and added to the cells immediately at 10 μM final concentration. After 6 h incubation at 37°C the supernatant was removed, cells were washed with PBS and trypsinized with 0.1% trypsin (Gibco® by Life Technologies) for 10 minutes. Trypsinization was terminated with FBS containing medium, then cells were washed and suspended in serum free medium. For live/dead distinction we used Zombie Violet reagent (BioLegend, San Diego, CA). Samples were measured and analyzed with an Attune® Acoustic Focusing Cytometer (ThermoFisher Scientific).
# (§3) As daunomycin-conjugates are fluorescent, we were able to follow their cellular uptake with a flow cytometer (Fig 10, S15 Fig). […] The higher uptake of 2 compared to 5 might partly compensate its slower degradation resulting in almost similar bioactivity. […] We speculate that the high cytostatic effect of 3 is explained by its fast decomposition resulting in the active Dau = Aoa-Gly-OH metabolite. […] However, after deamidation the formed isoDGR might be recognized by RGD integrin receptor, that results in moderate cytotoxicity in both cell lines during a longer treatment. […] Taking also the slow metabolite release into account, this observation explains the lack of significant cytostatic effect.
# (§4) Fig 10 Direct uptake of daunomycin-conjugates. Normalized uptake values indicate the fold increase of the measured fluorescent units compared to the autofluorescence of empty cells.
# [9] = tested on: HT-29 cells; assay: Cellular uptake by flow cytometry; type: cell-based, human; details: 10 μM conjugate in FBS supplemented medium, 6 h, 37°C, flow cytometry of Dau fluorescence, live cells (Zombie Violet)
# Procedure: as §2, §3, §4
compound,measurement,setting,value
c[CH2-CO-KNGRC]-NH2 (sidechain bridge or staple) [thioether bond containing cyclic NGR peptide],chemostability class of the free cyclic NGR peptide (deamidation),[1],highly labile
COc1cccc2c1C(=O)c1c(O)c3c(c(O)c1C2=O)C(OC1CC(N)C(O)C(C)O1)CC(O)(C(C)=NOCC(=O)NCC(=O)O)C3 (stereo not drawn) [Dau = Aoa-Gly-OH],binding to DNA,[2],binds efficiently to DNA
"Ac-CNGRC-NH2 (disulfide 1-5) [Ac-[CNGRC]-NH2, disulfide bridge containing cyclic NGR peptide]",chemostability class of the free cyclic NGR peptide (deamidation),[1],moderately
"COc1cccc2c1C(=O)c1c(O)c3c(c(O)c1C2=O)C[C@@](O)(C(C)=O)C[C@@H]3O[C@H]1C[C@H](N)[C@H](O)[C@H](C)O1 [Daunomycin, daunomycin]",IC50,[3],0.23 ± 0.1 µM
same,IC50,[4],0.15 ± 0.1 µM
same,IC50,[5],0.7 ± 0.3 µM
same,IC50,[6],0.7 ± 0.3 µM
"COc1cccc2c1C(=O)c1c(O)c3c(c(O)c1C2=O)C[C@@](O)(C(C)=NOCC(=O)NCC(=O)N[C@@H](Cc1ccccc1)C(=O)N[C@@H](CC(C)C)C(=O)NCC(=O)NCCCC[C@@H]1NC(=O)CSC[C@@H](C(N)=O)NC(=O)[C@H](CCCNC(=N)N)NC(=O)CNC(=O)[C@H](CC(N)=O)NC1=O)C[C@@H]3O[C@H]1C[C@H](N)[C@H](O)[C@H](C)O1 [compound 4, [CH2CO-K(Dau = Aoa-GFLG)NGRC]-NH2] ({CH2CO}-K([Gly-Leu-Phe-Gly-Daunorubicin(13-NOCH2CO)])NGRC-NH2; thioether N-5)",starting conjugate found after 6 h incubation in lysosomal homogenate,"[7]; 0.2 M NaOAc pH 5.0, 1:1 w/w, 6 h",the main components were still the intact conjugates
same,rate of decomposition in lysosomal homogenate,"[7]; 0.2 M NaOAc pH 5.0, conjugate/homogenate 1:1 w/w",decomposed very slowly
same,cellular uptake in HT-1080 cells,[8],low cellular uptake
same,cellular uptake in HT-29 cells,[9],low cellular uptake
c[KNGRE]-NH2 (lariat or depsi) [head-to-side chain amide bond cyclized NGR peptide],chemostability class of the free cyclic NGR peptide (deamidation),[1],stable
c[CH2-CO-NGRC]-NH2,chemostability class of the free cyclic NGR peptide (deamidation),[1],highly labile
